The text below walks through data of US20100062073A1, “PHARMACEUTICAL COMPOSITIONS COMPRISING NANOPARTICLES COMPRISING ENTERIC POLYMERS CASEIN” (priority 2006, published 2010).

The nature of the data set: Solubility of drug in PBS. The following applies: phosphate buffered saline (PBS), pH 6.5, aqueous buffer. Type of data set: physicochemical. The method, then: At a pH of greater than about 5, the enteric polymer is aqueous soluble. By “aqueous soluble” is meant that when the polymer is administered alone at a solids concentration of 0.2 mg/mL to a phosphate buffered saline (PBS) solution consisting of an aqueous solution of 20 mM sodium phosphate (Na2HPO4), 47 mM potassium phosphate (KH2PO4), 87 mM NaCl, and 0.2 mM KCl, adjusted to pH 6.5 with NaOH, the polymer has a solubility of greater than 0.1 mg/mL.
The Tm of Drug 1 is 10° C., and the Tg was determined by DSC analysis to be −16° C.

In general, solubility refers to the dissolved amount per volume that the medium holds. Low readings indicate little dissolved substance, high ones much dissolved substance.

`CCc1cc(Oc2cccc(N(Cc3cccc(OC(F)(F)C(F)F)c3)C[C@@H](O)C(F)(F)F)c2)ccc1Cl` [Drug 1, (2R)-3-[[3-(4-chloro-3-ethylphenoxy)phenyl][[3-(1,1,2,2-tetrafluoroethoxy)phenyl]methyl]amino]-1,1,1-trifluoro-2-propanol] showed a solubility of less than 0.1 µg/mL.
